Experimental findings from ChEMBL document CHEMBL3112408, “1,2,3-triazole-, arylamino- and thio-substituted 1,4-naphthoquinones: potent antitumor activity, electrochemical aspects, and bioisosteric replacement of C-ring-modified lapachones” (Bioorg Med Chem, 2014) are described below.

The subject of one experiment is L929. Kind of experiment: Cytotoxicity against mouse L929 cells assessed as cell viability after 72 hrs by MTT assay. The format is ADME, cell-based. The conditions noted are these: L929, 72 h. A general note: Tetrazolium dyes change colour on reduction, which living cells bring about.
The subject of the next experiment is V79. Kind of experiment: Cytotoxicity against chinese hamster V79 cells assessed as cell viability after 72 hrs by MTT assay. The format is cell-based. As to conditions: Cricetulus griseus, V79, 72 h.
The test system of another experiment is PBMC. Kind of experiment: Cytotoxicity against human PBMC assessed as cell viability after 72 hrs by MTT assay. The experiment is classed as cell-based.
Experiment [1] is described as follows: Cytotoxicity against human Hs578T cells assessed as cell viability after 72 hrs by MTT assay. As to conditions: Hs-578T. The experiment is classed as functional, cell-based.
The subject of another experiment is MX1. Description: Cytotoxicity against human MX1 cells assessed as cell viability after 72 hrs by MTT assay. The experiment is classed as functional, cell-based. The conditions noted are these: MX1, 72 h.
Another experiment concerns MCF7. Kind of experiment: Cytotoxicity against human MCF7 cells assessed as cell viability after 72 hrs by MTT assay. The experiment is classed as functional, cell-based. The conditions noted are these: MCF7, 72 h.
The subject of a further experiment is DU-145. Description: Cytotoxicity against human DU145 cells assessed as cell viability after 72 hrs by MTT assay. The experiment is classed as functional, cell-based. The conditions noted are these: DU-145, 72 h.
The next experiment deals with PC-3. Description: Cytotoxicity against human PC3 cells assessed as cell viability after 72 hrs by MTT assay. As to conditions: PC-3, 72 h. The experiment is classed as functional, cell-based.
In a further experiment the test system is HCT-116. Kind of experiment: Cytotoxicity against human HCT116 cells assessed as cell viability after 72 hrs by MTT assay. The experiment is classed as functional, cell-based. The conditions noted are these: HCT-116, 72 h.
Experiment [2] in a line: Cytotoxicity against human HCT8 cells assessed as cell viability after 72 hrs by MTT assay. The format is functional, cell-based. The conditions noted are these: HCT-8, 72 h.
In another experiment the test system is MDA-MB-435. Description: Cytotoxicity against human MDA-MB-435 cells assessed as cell viability after 72 hrs by MTT assay. The format is functional, cell-based. The conditions noted are these: MDA-MB-435, 72 h.
A further experiment concerns SF-295. Kind of experiment: Cytotoxicity against human SF295 cells assessed as cell viability after 72 hrs by MTT assay. The experiment is classed as functional, cell-based. As to conditions: SF-295, 72 h.
The test system of a further experiment is OVCAR-8. Description: Cytotoxicity against human OVCAR8 cells assessed as cell viability after 72 hrs by MTT assay. The format is functional, cell-based. As to conditions: OVCAR-8, 72 h.
The test system of the next experiment is HL-60. Kind of experiment: Cytotoxicity against human HL60 cells assessed as cell viability after 72 hrs by MTT assay. The format is functional, cell-based. The conditions noted are these: HL-60, 72 h.

The structures appear in SMILES notation. pIC50: −log10 of the molar value.

For orientation: pIC50 means −log10 of the IC50, conventionally taken in molar units.

Consider `CC1(C)CC(n2cc(C3CCCCC3)nn2)C2=C(O1)C(=O)c1ccccc1C2=O` (stereo unspecified), for which the negative-log IC50 (pIC50) in the experiment on L929 is 4.90; in the experiment with V79, 4.92; in the experiment with PBMC, less than 4.92; in [1], 4.96; in the experiment on MX1, less than 4.92; with MCF7, less than 4.92. The pIC50 in the experiment on DU-145 is 4.93; with PC-3 it was 4.95; in the experiment on HCT-116, 4.98; in [2], 4.91; in the experiment on MDA-MB-435, 4.97; in the experiment with SF-295, 4.95. For the same molecule, the pIC50 was 4.82 with OVCAR-8 and 4.98 with HL-60.

`CCCCCc1cn(C2CC(C)(C)OC3=C2C(=O)c2ccccc2C3=O)nn1` (stereo unspecified): the pIC50 in the experiment on L929 is 5.30; in the experiment with V79, 5.25; with PBMC, 5.11; in experiment [1], 5.51; in the experiment with MX1, 5.62; in the experiment with MCF7, 5.50. Besides, the negative-log IC50 (pIC50) in the experiment on DU-145 was 5.61; in the experiment with PC-3, 5.44; with HCT-116, 5.31; in [2], 5.35; in the experiment with MDA-MB-435, 5.56; in the experiment with SF-295, 5.56. Moreover, the negative-log IC50 (pIC50) is 5.18 in the experiment on OVCAR-8 and 5.86 in the experiment with HL-60.

Consider `CCC(C)(O)c1cn(C2CC(C)(C)OC3=C2C(=O)c2ccccc2C3=O)nn1` (stereo unspecified), for which the pIC50 in the experiment with L929 was 5.41; in the experiment on V79 it was 5.39; in the experiment on PBMC, 5.32; in [1], 5.52; in the experiment with MX1 it was 5.47; in the experiment with MCF7, 5.51. In addition, the pIC50 was 5.47 in the experiment with DU-145; 5.51 in the experiment with PC-3; 5.49 with HCT-116; 5.56 in experiment [2]; 5.68 in the experiment on MDA-MB-435; 5.37 with SF-295. For the same molecule, the pIC50 was 5.32 in the experiment on OVCAR-8 and 5.67 in the experiment with HL-60.

Take `CC(=O)OC[C@H]1OC(n2cc(CNC3=CC(=O)c4ccccc4C3=O)nn2)[C@H](OC(C)=O)[C@@H](OC(C)=O)[C@@H]1OC(C)=O` (single isomer, unassigned): the negative logarithm of the IC50 (pIC50) (in the experiment with L929; with V79; with PBMC; in [1]; in the experiment with MX1; with MCF7) was less than 5.10 each time. Also, the pIC50 (in the experiment on DU-145; in the experiment with PC-3; in the experiment on HCT-116; in experiment [2]; in the experiment with MDA-MB-435; with SF-295) was less than 5.10 in each case. Also, the pIC50 in the experiment with OVCAR-8 and in the experiment with HL-60 was less than 5.10 each time.
